Assay results as given in patent US20220169637A1, “SOLID FORMS OF ENCEQUIDAR MESYLATE AND PROCESSES THEREOF” (DR. REDDY'S LABORATORIES LIMITED, priority 2019, published 2022).
Where a name gives a salt, the structure may show the parent alone.

Experiment: Stress stability of crystalline Form EM1 (moisture content, XRPD pattern)
Format: physicochemical
Protocol: In an embodiment, the open sample of Form EM1 is stable at 25° C. for at least 24 hours. In an embodiment, the open sample of Form EM1 is stable under heating in air tray drier at 60° C. for at least 24 hours. In an embodiment, the open sample of Form EM1 is stable at 40° C. and 75% RH condition for at least 24 hours. In an embodiment, the open sample of Form EM1 is stable at 25° C. and 85% RH for at least 24 hours. In an embodiment, the open sample of Form EM1 is stable under UV exposure for at least 16 hours.

SMILES: COc1cc2c(cc1OC)CN(CCc1ccc(-n3nnc(-c4cc(OC)c(OC)cc4NC(=O)c4cc(=O)c5ccccc5o4)n3)cc1)CC2 [Form EM1, Encequidar mesylate]
- Moisture content (%) (Initial): 6.95%
- XRPD pattern (Initial): Form EM1
- Moisture content (%) (Open 25° C., 24 hours): 5.94%
- XRPD pattern (Open 25° C., 24 hours): Form EM1
- Moisture content (%) (Open 40° C./75% RH, 24 hours): 5.71%
- XRPD pattern (Open 40° C./75% RH, 24 hours): Form EM1
- Moisture content (%) (Open 60° C., 24 hours): 5.5%
- XRPD pattern (Open 60° C., 24 hours): Form EM1
- Moisture content (%) (UV exposed, 24 hours): 6.26%
- XRPD pattern (UV exposed, 24 hours): Form EM1
- Time stable (open sample at 25° C.): at least 24 hours
- Time stable (open sample at 25° C. and 85% RH): at least 24 hours
- Time stable (open sample at 40° C. and 75% RH): at least 24 hours
- Time stable (open sample under UV exposure): at least 16 hours
- Time stable (open sample, heating in air tray drier at 60° C.): at least 24 hours
- Stability under tabulated stress conditions (stress conditions for 24 hours): found to be stable
- Change in weight or moisture content and X-ray diffraction patterns (stressed samples, FIG. 5): No significant change
